{"source": "patent US20240390529A1", "about": "“DUAL-MODE PROBE FOR DETECTING HYDROGEN SULFIDE AND USE THEREOF” (KYUNGPOOK NATIONAL UNIVERSITY INDUSTRY-ACADEMIC COOPERATION …, priority 2022, published 2024)", "key": {"[1]": {"tested_on": "brain H2S", "experiment": "PET/CT imaging in Parkinson's disease rat model", "assay_type": "in vivo, SD rats", "conditions": "PET/CT 1 hour after injection of about 1 mCi", "method": "The Parkinson's disease-induced rat model was prepared by taking 7-week-old SD rats and injecting 6-hydroxydopamine (6-OHDA) into the medial forebrain bundle using a Hamilton syringe after drilling a small 1.5 mm hole in the rat's skull near the parietal region at 8 weeks of age.\nIn addition, the uptake pattern was also different between normal rats and the Parkinson's disease rat model (FIG. 23)."}, "[2]": {"experiment": "Lipophilicity, octanol-PBS partitioning", "assay_type": "physicochemical", "method": "(§1) The ligand ATSM-FITC(4) was radiolabeled with ^64CuCl2 ions in 0.1M ammonium acetate buffer (pH 6.8) at 60° C., with a radiochemical yield of >97% (FIG. 3). Among the various positron-emitting radioisotopes of copper (^60Cu, ^61Cu, ^62Cu, or ^64Cu), Cu-64 has a moderately long half-life (12.7 hours) and a decay mode favorable for PET imaging (17.8% β+ decay). […] The proportion of demetalized ^64CuS in the intact ^64Cu-ATSM-FITC(6) complex may be easily quantified by radio-TLC analysis. The Rf value of ^64Cu-ATSM-FITC(6) was 0.72 on a silica plate with mobile phase (ethyl acetate methanol (95:5)), and ^64CuS remained at the origin of the TLC plate (FIG. 22). As the concentration of H2S increased, the decomplexation percentage of ^64Cu-ATSM-FITC(6) increased proportionally and reached a plateau at 20 μM of H2S (FIG. 15C). […] The lipophilicity of the radiotracer was measured using the general octanol-PBS partitioning method."}, "[3]": {"tested_on": "brain H2S", "experiment": "Animal PET/CT brain imaging, normal and AOAA-treated BALB/c mice", "assay_type": "in vivo", "conditions": "1 hour after injection", "method": "Male BALB/c mice (6 to 9 weeks old) were purchased from Hyochang Bioscience (Daegu, Korea). All mice were housed at 20 to 24° C. together with sufficient water and commercial food under a 12-h day/night cycle. For studies on H2S inhibition, male BALB/c mice were injected intraperitoneally with AOAA ((O-(carboxymethyl) hydroxylamine hemihydrochloride, 10 mg/kg, Sigma-Aldrich (C13408-1G)), 1 hour before administered with ^64Cu-ATSM-FITC(6) into the tail vein.\nAnimal PET/CT images were obtained by using a nanoScan PET/CT scanner (PET 82S, Mediso, Budapest, Hungary). Radiolabeled ^64Cu-ATSM-FITC(6) (˜11 MBq, 200 μL of 5% DMSO/PBS) was injected via tail vein into normal and AOAA-treated BALB/c mice (n=4), and the mice were scanned for 20 minutes at 1 hour after the injection. For PET image-based quantification, regions of interest (ROIs) were manually drawn on the whole brain.\nDetection was performed in 1:3 matching smode with four iterations with six subsets. Analysis of the acquired PET/CT images was performed by using the Mediso InterView Fusion software package. The uptake of ^64Cu-ATSM-FITC(6) in each tissue was normalized to the administered radioactive dose and animal body weight and expressed as the average percent injected dose per gram (% ID/g)."}, "[4]": {"experiment": "Biodistribution in normal BALB/c mice (γ-counter)", "assay_type": "in vivo", "method": "BALB/c mice (male, 9 weeks old) were used to investigate the systemic distribution and clearance rate of ^64Cu-ATSM-FITC (6). ^64Cu-ATSM-FITC (6) with a radioactivity of 0.56 to 0.74 MBq in a saline solution (5% DMSO, 200 μL) was injected into mice through the tail vein under anesthesia. […] Blood was drawn, and organs comprising heart, lung, muscle, fat, bone, spleen, kidney, liver, intestine, and brain were harvested, weighed, and analyzed by using a γ-counter (Wallac Wizard 1480, PerkinElmer, France). Radioactivity was calculated as percentage of injected dose per gram (% ID/g).\nThe distribution of ^64Cu-ATSM-aniline in the body was confirmed by using the same method as described in Experimental Methods 5 and 7 above."}, "[5]": {"experiment": "In vitro stability in FBS and PBS (radio-TLC demetalization)", "assay_type": "in vitro ADME", "conditions": "37° C.", "method": "^64Cu-ATSM-FITC(6) (10 μL, 37 MBq) was first mixed with FBS (500 μL) or PBS (pH 7.4) at the same volume, and the mixture was incubated at 37° C. Demetalization was monitored using radio-TLC (silica, MeOH:EtOAc=5:95) for up to 12 hours.\nRadioactively labeled ^64Cu-ATSM-FITC(6) (10 μL, 37 MBq) was mixed with 100 μL of FBS or PBS at pH 7.4 in the same amount and incubated at 37° C. using a Thermomixer (500 rpm). In addition, demetalization was measured by radio-TLC (silica, MeOH:EtOAC=5:95) every 4 hours for up to 24 hours."}, "[6]": {"experiment": "Decomplexation of radiolabeled probe by H2S (radio-TLC)", "method": "as §1"}, "[7]": {"tested_on": "brain H2S", "experiment": "LPS neuroinflammation model, PET imaging and γ-counter quantification of brain hemispheres", "assay_type": "in vivo, mice", "conditions": "LPS-treated animals", "method": "Mice were mounted in a stereotaxic frame under isoflurane anesthesia. Sterile saline (control) or LPS (5 mg/mL, Sigma-Aldrich, Saint Louis, MO, USA, catalog number: L2630) was injected unilaterally into the right striatum (anterior-posterior [AP], 0.5 mm, medial) of each mouse by using a 28-gauge Hamilton syringe attached to an automatic microinjector. Injection was carried out at a rate of 0.2 μL/min for 10 minutes. After each injection, the needle was left in place for 5 minutes before being slowly retracted.\nBrain inflammation and control models were prepared 2 days prior to the study on PET imaging (n=5 each). ^64Cu-ATSM-FITC(6) (˜18 MBq, 200 μL of 5% DMSO/PBS) was injected into mice, and the mice were scanned for 10 minutes at 10 minutes after the injection. In addition, Sprague Dawley rats were injected with radiolabeled ^64Cu-ATSM-FITC(6) (˜18 MBq, 200 μL of 5% DMSO/PBS) through the tail vein, and the mice were scanned for 20 minutes at 1 hour after the injection. CT images were generated immediately without the use of additional contrast agents. All PET images were reconstructed by using the Mediso Tera-Tomo 3D iterative algorithm, together with corrections for interaction depth, radionuclide decay, detector normalization, decision dead time, and attenuation."}}, "data": [{"smiles": "CNC([S-])=NN=C(C)C(C)=NN=C([S-])Nc1ccc(-c2c3ccc(=O)cc-3oc3cc(O)ccc23)c(C(=O)O)c1.[64Cu+2]", "note": "[^64Cu-ATSM-FITC(6)]", "values": [{"measurement": "uptake in brain regions in Parkinson's disease rat model versus normal rats", "setting": "[1]", "value": "significantly lower"}, {"measurement": "log D7.4", "setting": "[2]", "value": "1.70±0.05"}, {"measurement": "brain uptake in PET imaging", "setting": "[3]; AOAA-treated mice (10 mg/kg i.p.)", "value": "11.4±2.0", "unit": "% ID/g"}, {"measurement": "brain uptake in PET imaging", "setting": "[3]; control mice", "value": "15.0±1.8", "unit": "% ID/g"}, {"measurement": "total injected activity found in the whole brain", "setting": "[4]", "value": "more than 3.3%"}, {"measurement": "brain uptake", "setting": "[4]; at 5 minutes, maintained up to 2 hours after injection", "value": "greater than 9 % ID/g"}, {"measurement": "uptake in the heart, lungs, and kidneys", "setting": "[4]; initially high", "value": "gradually decreased over time"}, {"measurement": "stability in FBS and PBS", "setting": "[5]", "value": "high stability"}, {"measurement": "degradation", "setting": "[5]; FBS and PBS, up to 24 hours after incubation", "value": "Less than 10%"}, {"measurement": "reaction with H2S", "setting": "[6]; forms insoluble ^64CuS precipitate", "value": "reacted immediately"}, {"measurement": "H2S concentration at which decomplexation percentage reached a plateau", "setting": "[6]; radio-TLC", "value": 20, "unit": "µM"}, {"measurement": "increase of radioactivity at the injection site (right hemisphere) versus left hemisphere", "setting": "[7]", "value": 31, "unit": "%"}]}]}
